Test results as given in patent publication US20230390309A1, “TETRACYCLINE DERIVATIVES FOR TREATING NEURODEGENERATIVE OR NEUROINFLAMMATORY DISEASES” (INSTITUT DU CERVEAU ET DE LA MOELLE EPINIERE, priority 2020, published 2023).
Converted amounts (≈) assume the structure as drawn. Read-outs that look alike come from different tables or passages of the source.

Key:
[1] = target: human recombinant monomeric α-Synuclein (Homo sapiens, UniProt P37840); test: Thioflavin-T fluorescence assay of α-Synuclein amyloid aggregation; format: biochemical; details: test compound 100 μM; 70 μM α-Synuclein; after 144 hours of shaking; percent of optimal response without tetracycline
Procedure: Aggregation studies were performed at 37° C. on samples containing 70 μM human recombinant monomeric α-Synuclein that were submitted to constant orbital agitation (Thermomixer Comfort, Eppendorf) at 600 rpm in the absence or in the presence of test compounds, at 100 μM. The formation of α-Synuclein aggregated species was monitored using the fluorescence probe Thioflavin-T (LeVine, Methods Enzymol. 1999, 309, 274-284; González-Lizárraga, et al. Sci Rep. 2017, 7, 41755), at a concentration of 25 μM. Changes in emission fluorescence were measured after 144 hrs of continuous shaking, at an excitation wavelength of 450 nm using a Horiba FluoroMax 4 spectrometer.

[2] = test system: E. coli DH5α; test: Disc diffusion assay to assess antimicrobial activities (inhibition of bacterial growth); format: cell-based; details: read-out: Minimal inhibitory concentration
Procedure: The antibacterial activities of test compounds were evaluated using the disc diffusion method (Kavanagh, Academic Press, Inc., New York, 1963, 125-140; Pomares et al, J Bacteriol. 2008, 30 190, 4328-4334). Briefly, filter-paper discs impregnated with 10 μl of two-fold serial dilutions of test compounds were placed onto LB solid medium Petri dishes. Then, aliquots (50 μl) of an E. coli DH5α culture in stationary phase were mixed with 3 ml of top agar (0.7% agar) and overlaid onto the plates. After overnight incubation at 37° C., the plates were examined for different degrees of inhibition. The antibacterial efficacy of a test compound was estimated by the Minimum Inhibitory Concentration (MIC) assay that determines the lowest concentration inhibiting visible growth of bacteria. Each test was performed in duplicate vs. the reference compound, doxycycline (“DOX”).

[3] = test system: dopaminergic midbrain neurons (TH+); test: Neuroprotection of TH+ dopaminergic neurons in primary mouse midbrain cultures (spontaneous oxidative stress); format: cell-based; details: Neuron, 168 h, cultured for 7 days, estimated graphically, read-out: EC50 (concentration protecting 50% of TH+ neurons)
Procedure: The inventors have further shown that compounds 1-H and 1-Me exert robust and concentration-dependent neuroprotective effects in a cell model in which the dopaminergic midbrain neurons, vulnerable in Parkinson's disease, degenerate further to a spontaneous oxidative stress of low intensity resulting from the presence of catalytic iron in the culture medium (Guerreiro et al, J Neurochem. 2009; 109(4):1118-28; Rousseau et al, Mol Pharmacol. 2013; 84(6):888-98).
Cultures were carried out using embryos of Swiss mice (Janvier LABS, Le Genest St. Isles, 30 France), collected at 13.5 days of gestation. The experimental procedures were performed in accordance with Directive 2010/63/EU of the Council of the European Union, using a protocol validated by the Charles Darwin ethics committee no. 5. The protocol is based on techniques reported previously (Rousseau et al, 2013, supra; Lavaur et al, J Neurochem. 2017; 142(1):14-28), using an additional step of trypsinization with an EDTA (2mM)-trypsin (0.05%) solution to facilitate the dissociation of brain tissue. The cells in suspension are distributed in 48-well multi-well dishes (Nunc; ThermoFisher Scientific), at a density of 50-80. 10^3 cells/cm^2, using Dulbecco's Modified Eagle's Medium/Nutrient Mixture F-12 Ham (Sigma-Aldrich), supplemented with 10% fetal calf serum. After 2 hours, the cultures are washed completely and placed in the presence of the same medium containing only 20 μg/ml of bovine insulin. The cultures are also treated with cytarabine (1.5 μM) on the first day in vitro and on the following day to reduce the number of glial cells in the cultures.
These cultures contain between 1 to 2% of dopaminergic neurons. […] Assessment of the number of dopaminergic neurons is done by counting TH^+ neurons with a Nikon Eclipse Ti-U inverted microscope.
The reference molecule used to prevent the loss of dopaminergic neurons is apotransferrin (APO; Sigma Aldrich; 100 μg/ml), a protein that chelates ferric iron in culture medium.

[4] = E. coli DH5α, disc diffusion, overnight incubation at 37° C., assayed twice
[5] = Escherichia coli, E. coli DH5α, disc diffusion, overnight incubation at 37° C., assayed twice

SMILES | residual Thioflavin-T fluorescence level [1] [%] | MIC [2, 4] [µM] | MIC ([2]; Escherichia coli) [µM] | EC50 [3] [µM] | MIC [2, 5] [µM]
NC(=O)C1=C(O)C[C@@H]2C[C@H]3C(=C(O)C2C1=O)C(=O)c1c(O)ccc(Cl)c1[C@H]3O (stereo partly drawn) [1-H, 7-chloro-3,6,10,12-tetrahydroxy-1,11-dioxo-1,4,4α,5,5α,6,11,12α-octahydrotetracene-2-carboxamide] | 1.5 | >2000 | > 2000 | 0.81 | –
C[C@@]1(O)c2c(Cl)ccc(O)c2C(=O)C2=C(O)C3C(=O)C(C(N)=O)=C(O)C[C@@H]3C[C@@H]21 (stereo partly drawn) [1-Me, 7-chloro-3,6,10,12-tetrahydroxy-6-methyl-1,11-dioxo-1,4,4α,5,5α, 6,11,12α-octahydrotetracene-2-carboxamide] | 13.5 | >2000 | – | 2.01 | > 2000
C[C@H]1c2cccc(O)c2C(=O)C2=C(O)[C@]3(O)C(=O)C(C(N)=O)=C(O)[C@@H](N(C)C)[C@@H]3[C@@H](O)[C@@H]21 [DOX, doxycycline, reference compound] | 21.1 | – | – | 5.2 | 62.5 (≈ 27.8 µg/mL)
